Test systems include A498; EKVX; HCT-116; HCT-15; HOP-62; IGROV-1; KM12; MDA-MB-231; OVCAR-5; RPMI-8226; SF-268; SF-539; SN12C; SNB-19; SR; SW-620; T47D; UACC-257; K562; RXF 393.
What all share (assay): NCI tumour cell line growth inhibition, 48 h

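Results reflect a 48-hour exposure of cells in 96-well plates to compound at five concentrations. At the GI50, growth is halved.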 Active and inactive are the calls of the source. No stated cut-off is given here; in the data, active = GI50 up to about 1.1 µM and inactive = higher.

As to `COc1cc(OC)cc(OCc2ccc3nc(-c4ccccc4)c(Cl)nc3c2)c1`, the GI50 in the test with A498 was 35 µM (inactive); in the test with EKVX, 27 µM (inactive); with HCT-116 it was 29 µM (inactive); with HCT-15, > 100 µM; with HOP-62 it was 16.7 µM (inactive); in the test on IGROV-1, 21.1 µM (inactive). For the same molecule, the GI50 is 58.3 µM (inactive) with KM12; 7.16 µM (inactive) in the test with MDA-MB-231; 49 µM (inactive) with OVCAR-5; 33.4 µM (inactive) in the test on RPMI-8226; 30.5 µM (inactive) in the test on SF-268; 18.4 µM (inactive) with SF-539. Further, the GI50 was 40.7 µM (inactive) in the test on SN12C; 25.9 µM (inactive) with SNB-19; 19.7 µM (inactive) in the test with SR; 59.8 µM (inactive) in the test with SW-620; 24.7 µM (inactive) in the test on T47D; > 100 µM (inactive) in the test on UACC-257.
Regarding `CC(=O)n1[nH]c(=O)n(-c2ccccc2)c1=O`, the GI50 with EKVX is > 100 µM (inactive); with HCT-116, > 100 µM (inactive); in the test with HCT-15, > 100 µM; in the test on HOP-62 it was > 100 µM (inactive); with IGROV-1, > 100 µM (inactive); with K562, > 100 µM (inactive). The GI50 with KM12, with MDA-MB-231, in the test on OVCAR-5, in the test on RPMI-8226, in the test with RXF 393 and in the test on SF-268 was > 100 µM (inactive) throughout. The GI50 in the test on SN12C, with SNB-19, in the test on SR, in the test with SW-620, in the test on T47D and in the test with UACC-257 was > 100 µM (inactive) throughout.
On to `O=c1[nH]c(=O)n(C2CC(O)C(CO)O2)cc1OCCc1ccccc1` (stereo not drawn), for which the GI50 with EKVX was > 100 µM (inactive); with HCT-116, > 100 µM (inactive); in the test with HCT-15, > 100 µM; in the test with HOP-62, > 100 µM (inactive); with IGROV-1, > 100 µM (inactive); in the test with K562 it was > 100 µM (inactive). For the same molecule, the GI50 with KM12, in the test with MDA-MB-231, in the test on OVCAR-5, in the test on RPMI-8226, in the test with RXF 393 and in the test with SF-268 was > 100 µM (inactive) in each case. The GI50 in the test on SN12C, with SNB-19, with SR, in the test on T47D and in the test with UACC-257 was > 100 µM (inactive) each time.
As to `COc1ccc(N[S+]([O-])c2ccc(Cl)cc2)cc1` (stereo not drawn), the GI50 with EKVX was 55.2 µM (inactive); in the test on HCT-116 it was 14.5 µM (inactive); in the test with HCT-15 it was 19.5 µM; with HOP-62, 61.7 µM (inactive); with IGROV-1 it was 10.5 µM (inactive); in the test with K562, 34.4 µM (inactive). In addition, the GI50 with KM12 was 7.31 µM (inactive); with MDA-MB-231, 50.4 µM (inactive); in the test on RPMI-8226, 39.4 µM (inactive); in the test with SF-268 it was 4 µM (inactive); with SF-539 it was 11.9 µM (inactive); in the test on SN12C, > 100 µM (inactive). The GI50 in the test with SNB-19 was 93.1 µM (inactive); in the test on SR, 13.4 µM (inactive); in the test with SW-620, 49.1 µM (inactive); with T47D it was 10.1 µM (inactive); in the test with UACC-257, 17.9 µM (inactive).
`Cc1cc2nc(N3C(=O)/C(=C/c4cccc([N+](=O)[O-])c4)N=C3c3ccccc3)sc2cc1C`: the GI50 in the test with EKVX is 18.8 µM (inactive); with HCT-116 it was 23.9 µM (inactive); with HCT-15, 36.5 µM; in the test with HOP-62, 35.7 µM (inactive); in the test on IGROV-1, 12.5 µM (inactive); with K562, 30.1 µM (inactive). Further, the GI50 was 27.2 µM (inactive) in the test with KM12; 62.4 µM (inactive) with MDA-MB-231; 40.2 µM (inactive) in the test on OVCAR-5; 21.1 µM (inactive) in the test with RPMI-8226; 15.6 µM (inactive) in the test with RXF 393; 25.9 µM (inactive) in the test on SF-268. Moreover, the GI50 in the test on SF-539 is 39.4 µM (inactive); in the test with SN12C, 26.7 µM (inactive); in the test on SNB-19 it was 34.1 µM (inactive); in the test on SR it was 14.9 µM (inactive); in the test on SW-620, 27 µM (inactive); in the test with T47D it was 27.1 µM (inactive). In addition, the GI50 in the test with UACC-257 is 42.6 µM (inactive).
On to `Cc1ccc(S(=O)(=O)NNCNC(=O)c2ccccc2)cc1`, for which the GI50 was > 100 µM (inactive) in the test on EKVX; > 100 µM (inactive) in the test with HCT-116; 70.8 µM in the test with HCT-15; > 100 µM (inactive) with HOP-62; > 100 µM (inactive) in the test with IGROV-1; 64.4 µM (inactive) with K562. The GI50 with KM12 was 85.1 µM (inactive); in the test with MDA-MB-231 it was > 100 µM (inactive); in the test on OVCAR-5 it was > 100 µM (inactive); with RPMI-8226, 76 µM (inactive); with RXF 393 it was > 100 µM (inactive); in the test on SF-268, > 100 µM (inactive). Also, the GI50 in the test on SF-539 is > 100 µM (inactive); with SN12C, > 100 µM (inactive); with SNB-19, > 100 µM (inactive); with SR it was 2.29 µM (inactive); with SW-620, 94.8 µM (inactive); in the test with T47D, 83.4 µM (inactive). Moreover, in the test with UACC-257, the GI50 was > 100 µM (inactive).
Turning to `CCCS(=O)(=O)Nc1ccc(Nc2c3ccccc3nc3ccccc23)c(OC)c1`, the GI50 is 0.904 µM (active) in the test with A498; 12.7 µM (inactive) with EKVX; 0.929 µM (active) in the test with HCT-116; 1.35 µM with HCT-15; 0.561 µM (active) in the test on HOP-62; 1.31 µM (inactive) with IGROV-1. The GI50 is 1.92 µM (inactive) with KM12; 3.32 µM (inactive) in the test with MDA-MB-231; 8.63 µM (inactive) in the test on OVCAR-5; 5.19 µM (inactive) in the test with RXF 393; 0.853 µM (active) in the test with SF-268; 1.17 µM (inactive) with SF-539. In addition, the GI50 is 0.127 µM (active) in the test on SN12C; 1.08 µM (active) in the test on SNB-19; 0.0236 µM (active) in the test with SR; 2.08 µM (inactive) in the test with SW-620; 0.902 µM (active) in the test with T47D; 5.53 µM (inactive) in the test on UACC-257.
For `COc1ccc(N[S+]([O-])CCCc2ccccc2)cc1` (stereo not drawn), the GI50 was > 100 µM (inactive) with EKVX; > 100 µM (inactive) in the test with HCT-116; 64 µM in the test with HCT-15; > 100 µM (inactive) in the test on HOP-62; 72.6 µM (inactive) with IGROV-1; 75.5 µM (inactive) with K562. The GI50 in the test with KM12 is 34.8 µM (inactive); in the test with MDA-MB-231, > 100 µM (inactive); in the test on OVCAR-5, > 100 µM (inactive); in the test with RPMI-8226, 70 µM (inactive); in the test on SF-268 it was > 100 µM (inactive); with SF-539 it was > 100 µM (inactive). The GI50 was > 100 µM (inactive) in the test on SN12C; > 100 µM (inactive) in the test with SNB-19; 88.5 µM (inactive) with SR; > 100 µM (inactive) in the test with SW-620; 14.7 µM (inactive) with T47D; 65 µM (inactive) with UACC-257.
Turning to `N#Cc1cnn2c1n[n+]([O-])c1ccc(Cl)cc12`, the GI50 in the test with A498 was 19.3 µM (inactive); in the test with EKVX, 2.9 µM (inactive); in the test with HCT-116 it was 8.75 µM (inactive); in the test with HCT-15 it was 1.97 µM; in the test with HOP-62, 15.2 µM (inactive); with IGROV-1, 4.14 µM (inactive). The GI50 was 1.71 µM (inactive) in the test with K562; 25.6 µM (inactive) in the test on KM12; 15.1 µM (inactive) in the test on MDA-MB-231; > 45.1 µM (inactive) with OVCAR-5; 23.8 µM (inactive) in the test on RPMI-8226; 15 µM (inactive) with RXF 393. Also, the GI50 in the test with SF-268 is 9.73 µM (inactive); in the test on SF-539, 18.2 µM (inactive); in the test on SN12C, 7.91 µM (inactive); in the test with SNB-19 it was 3.11 µM (inactive); in the test with SW-620, 9.14 µM (inactive); in the test with T47D, 17.3 µM (inactive). Also, the GI50 in the test with UACC-257 was 9.35 µM (inactive).
As to `Clc1cc2nn(C3CCCCO3)nc2cc1Cl` (stereo not drawn), the GI50 in the test on EKVX is > 100 µM (inactive); in the test on HCT-116 it was > 100 µM (inactive); in the test with HCT-15, > 100 µM; in the test on HOP-62 it was > 100 µM (inactive); in the test on IGROV-1, > 100 µM (inactive); in the test with K562 it was > 100 µM (inactive). Moreover, the GI50 in the test with KM12, in the test on MDA-MB-231, in the test on OVCAR-5, in the test on RXF 393, with SF-539 and with SN12C was > 100 µM (inactive) each time. In addition, the GI50 in the test on SNB-19, with SR, in the test on T47D and in the test on UACC-257 was > 100 µM (inactive) each time.
Take `CCOC(=O)C(NC(=O)c1ccccc1)(Nc1ccc(S(=O)(=O)Nc2ccc(OC)nn2)cc1)C(F)(F)F` (stereo not drawn): the GI50 in the test with EKVX was > 100 µM (inactive); with HCT-116, > 100 µM (inactive); in the test with HCT-15, > 100 µM; in the test on HOP-62 it was > 100 µM (inactive); with IGROV-1, > 100 µM (inactive); with K562, > 100 µM (inactive). Also, the GI50 in the test with KM12, in the test with MDA-MB-231, with OVCAR-5, in the test with RPMI-8226, in the test with RXF 393 and with SF-268 was > 100 µM (inactive) in each case. Moreover, the GI50 in the test with SF-539, with SN12C, in the test on SNB-19, in the test with SR, in the test with SW-620 and in the test on T47D was > 100 µM (inactive) throughout. In the test with UACC-257, the GI50 was > 100 µM (inactive).

Source of the values: ChEMBL document CHEMBL1201862, “PubChem BioAssay data set” (2004).
